Experimental data as given in ChEMBL document CHEMBL1201862, “PubChem BioAssay data set” (2004).
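These data come from cells grown in 96-well plates and exposed to compound for 48 hours at five concentrations. The concentration for 50% growth inhibition is given as GI50.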 Calls of active or inactive are those of the source. No stated cut-off is given here; in the data, active = GI50 up to about 1.1 µM and inactive = higher.

Experiments:
Assay in all cases: growth of human tumour cells (NCI), 48 h
A498 = system: A498
EKVX = system: EKVX
HCC 2998 = system: HCC 2998
HCT-15 = system: HCT-15
HOP-62 = system: HOP-62
HOP-92 = system: HOP-92
KM-20L2 = system: KM-20L2
M14 = system: M14
NCI-H23 = system: NCI-H23
NCI-H522 = system: NCI-H522
OVCAR-3 = system: OVCAR-3
OVCAR-4 = system: OVCAR-4
OVCAR-5 = system: OVCAR-5
SF-268 = system: SF-268
SK-OV-3 = system: SK-OV-3
SN12C = system: SN12C
SW-620 = system: SW-620
UO-31 = system: UO-31

Structure (SMILES)	GI50 (A498)	GI50 (EKVX)	GI50 (HCC 2998)	GI50 (HCT-15)	GI50 (HOP-62)	GI50 (HOP-92)	GI50 (KM-20L2)	GI50 (M14)	GI50 (NCI-H23)	GI50 (NCI-H522)	GI50 (OVCAR-3)	GI50 (OVCAR-4)	GI50 (OVCAR-5)	GI50 (SF-268)	GI50 (SK-OV-3)	GI50 (SN12C)	GI50 (SW-620)	GI50 (UO-31)
N[C@H](C(=O)O)[C@@H](Cl)CC(=O)O	> 100 µM (inactive)	> 100 µM (inactive)	> 100 µM (inactive)	> 100 µM	> 100 µM (inactive)	> 100 µM (inactive)	> 100 µM (inactive)	> 100 µM (inactive)	> 100 µM (inactive)	> 100 µM (inactive)	> 100 µM (inactive)	> 100 µM (inactive)	> 100 µM (inactive)	> 100 µM (inactive)	> 100 µM (inactive)	> 100 µM (inactive)	> 100 µM (inactive)	> 100 µM (inactive)
COc1cccc2c1CCc1ccccc1CC2=O	> 100 µM (inactive)	> 100 µM (inactive)	> 100 µM (inactive)	> 100 µM	–	> 100 µM (inactive)	> 100 µM (inactive)	> 100 µM (inactive)	> 100 µM (inactive)	> 100 µM (inactive)	> 100 µM (inactive)	39.2 µM (inactive)	> 100 µM (inactive)	> 100 µM (inactive)	> 100 µM (inactive)	> 100 µM (inactive)	> 100 µM (inactive)	> 100 µM (inactive)
Cc1ccc(NC(=O)/C(=N\NC(N)=S)C(C#N)c2ccccc2C)cc1C (stereo not given)	> 100 µM (inactive)	> 100 µM (inactive)	> 100 µM (inactive)	> 100 µM	> 100 µM (inactive)	> 100 µM (inactive)	> 100 µM (inactive)	> 100 µM (inactive)	> 100 µM (inactive)	> 100 µM (inactive)	> 100 µM (inactive)	> 100 µM (inactive)	> 100 µM (inactive)	> 100 µM (inactive)	> 100 µM (inactive)	> 100 µM (inactive)	> 100 µM (inactive)	> 100 µM (inactive)
O=C1C=CC2(CCC23C=CC(=O)O3)O1 (stereo not given)	> 100 µM (inactive)	> 100 µM (inactive)	> 100 µM (inactive)	> 100 µM	> 100 µM (inactive)	–	> 100 µM (inactive)	> 100 µM (inactive)	> 100 µM (inactive)	51.6 µM (inactive)	> 100 µM (inactive)	> 100 µM (inactive)	> 100 µM (inactive)	> 100 µM (inactive)	> 100 µM (inactive)	> 100 µM (inactive)	94.6 µM (inactive)	> 100 µM (inactive)
